# In patent US7321046B2, “Analogs of dictyostatin, intermediates therefor and methods of synthesis thereof” (University of Pittsburgh, priority 2002, dated 2008):
# Like-named read-outs stand apart in the source and are kept apart here.
# Legend:
# [1] = test system: human ovarian carcinoma cells (1A9); assay: Antiproliferative assay (GI50, MTS); assay type: cell-based; conditions: for antiproliferative potency / GI50 values (in words): Table 1 (1A9 and mutant lines)
# Experimental: (§1) Representative analogs were examined for their antiproliferative activities against human ovarian carcinoma 1A9 cells and their paclitaxel-resistant mutants, 1A9/Ptx10 and 1A9/Ptx22.
# […] Cells were maintained in RPMI medium with 10% FBS in it, plated in tissue culture plates, and allowed to grow for 48-72 h before transferring them into 96-well plates. Cells were allowed to attach and grow for 48 h in 96-well plates after which they were treated with either control (DMSO) or drug in triplicate/quadruplicate. Cells were incubated with the compounds for 72 h. Cells were treated with MTS reagent before reading the plate in a Dynamax plate reader for determining the cell number. The fifty percent growth inhibition values (GI50 values) were calculated for the compounds against all the three cell lines.
# [2] = test system: 1A9/Ptx10 (Phe270 −> Val) β-tubulin mutant cells; assay: Antiproliferative assay (GI50, MTS), paclitaxel-resistant clone; assay type: cell-based, human; conditions: for fold-resistance: 1A9/Ptx10 versus parental 1A9
# Experimental: as §1
# (§2) The effects of dictyostatin and its analogs on growth inhibition of parental ([…]) and paclitaxel-resistant (1A9/Ptx10 and Ptx22) ovarian adenocarcinoma cell lines were evaluated following the antiproliferative assay protocol as described earlier (Minguez et al., 2003; Choy et al., 2003; Lazo et al., 2001). Cells were maintained in RPMI medium with 10% FBS in it, plated in tissue culture plates, and allowed to grow for 48-72 h before transferring them into 96-well plates. Cells were allowed to attach and grow for 48 h in 96-well plates after which they were treated with either control (DMSO) or drug in triplicate/quadruplicate. Cells were incubated with the compounds for 72 h. Cells were treated with MTS reagent before reading the plate in a Dynamax plate reader for determining the cell number. The fifty percent growth inhibition values (GI50 values) were calculated for the compounds against all the three cell lines.
# [3] = test system: 1A9/Ptx22 (Ala364 −> Thr) β-tubulin mutant cells; assay: as above; assay type: cell-based, human; conditions: for fold-resistance: 1A9/Ptx22 versus parental 1A9
# Experimental: as §1, §2
# [4] = test system: T1, Bovine brain tubulin; assay: Pelleting assay (tubulin assembly EC50 determination); assay type: biochemical; conditions: tubulin 10 μM in 0.2 M MSG, 15 min at 20° C.; for EC50: concentration required to polymerize 50% of tubulin, read-out: EC50 (μM) ± SD (N)
# T1 construct: Bovine brain tubulin (10 μM) in 0.2 M MSG, 15 min at 20° C
# Experimental: Dictyostatin and representative analogs were evaluated in a quantitative assay for their ability to promote tubulin polymerization. […] When the percent polymer formed was determined in the reactions, a comparison of the activities of all the analogs could be made.
# The assay was performed under three different reaction conditions following the procedure reported earlier (Gapud et al., 2004). Reaction condition 1 included 0.2 M monosodium glutamate (MSG), 10 μM tubulin, 5% DMSO and varying concentrations of test agents. Reaction condition 2 included 0.8 M MSG, 400 μM GTP, 10 μM tubulin, 5% DMSO, and varying concentrations of test agents. Reaction condition 3 had 0.6 M MSG, 200 μM GTP, and 10 μM tubulin, and 5% DMSO, and varying concentrations of the test agents. The experimental protocol for all the three reaction conditions was the following. The reaction mixtures were incubated at room temperature (20-22° C.) for 15 min and spun for 10 min at 14,000 rpm in an Eppendorf microtube centrifuge. Aliquots of the supernatants were removed and assayed for protein content by the method of Lowry.
# [5] = test system: microtubules (tubulin polymer); assay: Radiolabeled ligand binding assays; conditions: test agent 4 μM; radiolabel 4.0 μM; 37° C.
# Experimental: The abilities of test agents to inhibit the binding of radiolabeled forms of the microtubule stabilizers paclitaxel, discodermolide and epothilone B from tubulin polymer were determined.
# [^3H]Paclitaxel, [^3H]discodermolide and [^14C]epothilone B solutions were prepared as 125 μM stock solutions in 50% DMSO. Radiolabeled compound (final concentration, 4.0 μM) and test agents at final concentrations noted in the text and tables were mixed in 50 μL of 4:1 (v/v) 0.75 M aqueous MSG/DMSO and warmed to 37° C. Meanwhile, a reaction mixture containing 0.75 M MSG, 2.5 μM tubulin, and 25 μM ddGTP was prepared and incubated at 37° C. for 30 min to form microtubuless. A 200 μL aliquot of the microtubule mixture was added to the drug mixtures, and incubation continued for 30 min at 37° C. Reaction mixtures were centrifuged in an Eppendorf 5417C centrifuge at 14,000 rpm for 20 min at room temperature. Radiolabel in the supernatants (100 μL) was determined by scintillation spectrometry.
# [6] = test system: HeLa cells; assay: Multiparameter fluorescence high information content analysis of cellular effects; assay type: cell-based; parameters: unit not given here; conditions: 24 h treatment; for Minimum detectable cellular change, Nuclear condensation: Hoechst 33342
# Experimental: HeLa cells were plated on collagen-coated 384-well microtiter plates, allowed to attach, then treated for 24 h with test agents. Test agent concentrations began at 1 μM, and two-fold dilutions were made to levels below 1 nM. After the treatment period, the cells were fixed with formalin and their chromatin stained with Hoechst 33342. Cells were permeabilized and treated with primary antibodies for α-tubulin and phosphohistone H3, and then with fluorophore-labeled secondary antibodies. The three fluorescent channels were then examined on an ArrayScan II, which gives quantitative pixel distribution and density information in each channel on a per cell basis.
# HeLa cells growing at log phase were trypsinized and plated in 40 μL at a density of 7,000-8,000 cells per well in calf skin collagen I-coated 384-well plates (Falcon #3962; Fisher Scientific). Cells were exposed to test agents or 0.5% DMSO within 2-8 h of plating. Concentrated DMSO stock solutions of all test agents were diluted into solutions of HBSS medium plus 10% FBS and added to the microplate wells (10 μL per well), using an automated liquid handling system (Biomek® 2000; Beckman-Coulter, Inc.) to provide a serial 2-fold dilution of each test agent. The cells were incubated in the presence of test agents for 24 h. At the end of the incubation, the medium was removed and replaced with HBSS containing 4% formaldehyde and 10 μg/mL Hoechst 33342 (25 μL/well) to fix the cells and fluorescently label their chromatin. After incubation at room temperature for 20-30 min, the solution was removed from each well and replaced with HBSS (100 μL/well). Further reagent additions were made to the microplates using the Biomek 2000. After removing the HBSS from each well, cells were permeabilized for 5 min at room temperature with 0.5% (w/w) Triton X-100 in HBSS (10 μL/well). This step extracts a fraction of the soluble cellular components, including soluble tubulin. The wells were washed with HBSS (100 μL/well), followed by addition of a primary antibody solution containing mouse anti-α-tubulin (1:3000) and rabbit anti-phosphohistone H3 (1:500) in HBSS (10 μL/well). After 1 h at room temperature, the wells were washed with HBSS as above, followed by the addition of a secondary antibody solution containing fluorescein-5-isothiocyanate (FITC)-labeled donkey anti-mouse (1:300) and Cy3-labeled donkey anti-rabbit (1:300) antibodies diluted in HBSS (10 μL/well). After 1 h at room temperature, the wells were washed as above, and HBSS was added (100 μL/well). The plates were placed in an ArrayScan® HCS Reader with the Target Activation BioApplication Software coupled to Cellomics® Store and the vHCS™ Discovery Toolbox (Cellomics, Inc.) to analyze images. Briefly, the instrument was used to scan multiple optical fields, each with multiparameter fluorescence, within a subset of the wells of the 384-well microplate. The BioApplication software produced multiple numerical feature values, such as subcellular object intensities, shapes, and location for each cell within an optical field. […] A nuclear mask was generated from Hoechst 33342-stained nuclei, and object identification thresholds and shape parameters were set such that the algorithm identified over 90% of the nuclei in each field. Objects that touched each other or the edge of the image were excluded from the analysis. Tubulin mass was defined as the average green (FITC) pixel intensity in an area defined by the Hoechst-defined nuclear mask. This cytoplasmic area around the nucleus contains cytoskeletal components is a region from which sensitive measurements of cytoplasmic characteristics can be made.
# [7] = Homo sapiens, Ovarian carcinoma cell, 72 h, read-out: GI50 ± S.D., 1A9 parental cells, 72 h incubation
# [8] = Homo sapiens, 1A9/ptx-10, 72 h, read-out: GI50 ± S.D., 1A9/Ptx10 (Phe270 −> Val), 72 h incubation
# [9] = Homo sapiens, 1A9/ptx-22, 72 h, read-out: GI50 ± S.D., 1A9/Ptx22 (Ala364 −> Thr), 72 h incubation
Structure (SMILES),antiproliferative potency / GI50 values (in words) [1],fold-resistance [2] [fold],fold-resistance [3] [fold],% Tubulin polymerized by 50 μM test agent [4] [%],EC50 [4] [µM],"Percent inhibition of radiolabel from microtubules, [3H]Paclitaxel [5]","Minimum detectable cellular change, Phosphohistone H3 [6]","Minimum detectable cellular change, Tubulin polymer intensity [6]","Minimum detectable cellular change, Nuclear condensation [6]","GI50 [1, 7] [µM]","GI50 [2, 8] [µM]","GI50 [3, 9] [µM]","Percent inhibition of radiolabel from microtubules, [3H]Discodermolide [5]","Percent inhibition of radiolabel from microtubules, [14C]Epothilone B [5]",further results
"C=CC=CC(C)C1OC(=O)C=CC=CC(C)C(O)CC(O)C=CC(C)C(O)C(C)CC(C)CCC(O)C1C [Compound 100, 8(S),10(S),14(R),20(R)-Tetrahydroxy-7(S),13(S),15(R),17(S),21 (S)-pentamethyl-22(S)-(1(S)-methyl-penta-2,4-dienyl)-oxa-cyclodocosa-3(E),5(E),11(Z)-trien-2-one]",high nanomolar GI50 values,2.5,2.5,1 ± 1,> 50,0 ± 1%,>5000 (4),>5000 (4),>5000 (4),–,–,–,–,–,"GI50 ([1]; read-out: GI50 ± S.D., 1A9 parental cells, 72 h incubation): 0.31 ± 0.04 µM; GI50 ([2]; read-out: GI50 ± S.D., 1A9/Ptx10 (Phe270 −> Val), 72 h incubation): 0.78 ± 0.2 µM; GI50 ([3]; read-out: GI50 ± S.D., 1A9/Ptx22 (Ala364 −> Thr), 72 h incubation): 0.79 ± 0.56 µM"
"C=C/C=C\[C@H](C)[C@H](O)[C@@H](C)[C@H](CC[C@H](C)C[C@@H](C)[C@@H](O[Si](C)(C)C(C)(C)C)[C@@H](C)/C=C\[C@H](C[C@H](O[Si](C)(C)C(C)(C)C)[C@@H](C)/C=C/C=C\C(=O)O)O[Si](C)(C)C(C)(C)C)O[Si](C)(C)C(C)(C)C [Compound 107, (2Z,4E,6S,7S,9S,10Z,12S,13R,14R,16S,19S,20R,21S,22S,23Z)-7,9,13,19-tetrakis(tert-Butyldimethylsilyloxy)-21-hydroxy-6,12,14,16,20,22-hexamethylhexacosa-2,4,10,23,25-pentaenoic acid]",–,–,–,–,–,–,–,–,–,> 0.5,> 0.5,> 0.5,–,–,–
"C=CC=CC(C)C1OC(=O)C=CC=CC(C)C(O)CC(O)C=CC(C)C(O)C(C)CC(C)CCC(O)C1C [Compound 108, 8(S),10(S),14(R),20(S)-Tetrahydroxy-7(S),13(S),15(R),17(S),21(S)-pentamethyl-22(S)-(1(S)-methyl-penta-2,4-dienyl)oxacyclodocosa-3(Z),5(E),11(Z)-trien-2-one]",mid micromolar GI50 values,0.9,1.1,5 ± 1,> 50,0 ± 1%,>5000 (4),>5000 (4),>5000 (4),28 ± 1,26,30 ± 1,–,–,–
CC(=O)O[C@@]12CO[C@@H]1C[C@H](O)[C@@]1(C)C(=O)[C@H](O)C3=C(C)[C@@H](OC(=O)[C@H](O)[C@@H](NC(=O)OC(C)(C)C)c4ccccc4)C[C@@](O)([C@@H](OC(=O)c4ccccc4)[C@H]21)C3(C)C [docetaxel],–,–,–,–,–,63 ± 8 (4) %,–,–,–,–,–,–,8 ± 6 (3) %,36 ± 1 (3) %,–
C/C(=C\c1csc(C)n1)[C@@H]1C[C@@H]2O[C@@H]2CCC[C@H](C)[C@H](O)[C@@H](C)C(=O)C(C)(C)[C@@H](O)CC(=O)O1 [epothilone A],–,–,–,–,–,53 ± 4 (4) %,–,–,–,–,–,–,6 ± 6 (3) %,25 ± 3 (3) %,–
C/C(=C\c1csc(C)n1)[C@@H]1C[C@@H]2O[C@]2(C)CCC[C@H](C)[C@H](O)[C@@H](C)C(=O)C(C)(C)[C@@H](O)CC(=O)O1 [epothilone B],–,–,–,–,–,–,–,–,–,–,–,–,14 ± 3%,–,–
